Measurements from US20080279812A1, “Disease Prevention and Vaccination Prior to Thymic Reactivation” (Norwood Immunology, Ltd., priority 2003, published 2008).

Columns and labels:
sex steroid levels [1] = experiment: Sex steroid ablation therapy of a patient with an LHRH agonist (Example 6); assay type: in vivo, human; conditions: single dose effective for 3 months
Description: The patient was given sex steroid ablation therapy in the form of delivery of an LHRH agonist. This was given in the form of either Leucrin (depot injection; 22.5 mg) or Zoladex® (implant; 10.8 mg), either one as a single dose effective for 3 months. […] In some cases it is also necessary to deliver a suppresser of adrenal gland production of sex steroids. Cosudex® (5 mg/day or 50 mg/day) may also be given as one tablet per day for the duration of the sex steroid ablation therapy. Alternatively, the patient is given a GnRH antagonist, e.g., Cetrorelix or Abarelix, as a subcutaneous injection

[2] = system: pituitary LH, serum testosterone; conditions: chronic administration, cited from earlier work
sex steroid levels [3] = experiment: Zoladex before autologous or allogeneic PBSCT (Example 31); assay type: in vivo, human; conditions: implant from day -21 before PBSC infusion
Description: Patients are male or female, aged 18 years or older that are due to undergo high-dose therapy (HDT) with PBSCT for malignant disease or BM failure. The 10.8 mg implant formulation (for men) of the Zoladex® is dispersed in a cylindrical rod of biodegradable and biocompatible polyglactins and is released continuously over 12 weeks following subcutaneous injection. The 3.6 mg implant (for women) is dispersed in a cylindrical rod of a biodegradable and biocompatible polyglactin and is released continuously over 28 days following subcutaneous injection. The implants are commercially supplied in a purpose-designed applicator with 14-16 gauge needles.
Reduction of sex steroids in the blood to minimal values may take several weeks. Consequently, 21 days prior to PBSC infusion (day 0), patients are injected with the sex steroid ablation therapy in the form of LHRH agonist Zoladex® (implant). For males, 10.8 mg goserelin as a single dose (effective for 3 months) are administered on day −21 with a further injection of 3.6 mg on day 63 (effective for 28 days). For females, 3.6 mg (effective for 28 days) are administered on day −21 and days 7, 35 and 63. […] Other doses may be deemed acceptable as determined readily by those skilled in the art. […]
Thymic function is determined by assessment of T cell subsets by flow cytometry, T cell responses in vitro, and production of TRECs.

SMILES: CC(C)C[C@H](NC(=O)[C@@H](COC(C)(C)C)NC(=O)[C@H](Cc1ccc(O)cc1)NC(=O)[C@H](CO)NC(=O)[C@H](Cc1c[nH]c2ccccc12)NC(=O)[C@H](Cc1cnc[nH]1)NC(=O)[C@@H]1CCC(=O)N1)C(=O)N[C@@H](CCCNC(=N)N)C(=O)N1CCC[C@H]1C(=O)NNC(N)=O [Zoladex®, goserelin acetate]
- reduction of sex steroid levels (sex steroid levels [1]): effective in reducing sex steroid levels sufficiently to reactivate the thymus
- time to sustained suppression of pituitary LH ([2]; after initiation of therapy): ≤ 3 weeks
- serum testosterone levels in males [2]: range normally seen in surgically castrated men
- reduction of sex steroid levels (sex steroid levels [3]): effective in reducing sex steroid levels sufficiently to reactivate the thymus
